Test results as given in US20110305632A1, “PROCESS FOR THE PREPARATION OF ASYMMETRICAL BIS(THIOSEMICARBAZONES)” (THE UNIVERSITY OF MELBOURNE, priority 2008, published 2011).

Experiment: Cyclic voltammetry of Cu(II) bis(thiosemicarbazonato) complexes (half-wave potentials and peak separations)
Type: physicochemical
Settings: DMF
Procedure: Voltametric experiments were performed with an Autolab (Eco Chemie, Utrecht, Netherlands) computer-controlled electrochemical workstation.
Recent studies have shown that in vivo stability of bifunctional chelators of copper is not only dependent on the thermodynamic stability and kinetic inertness of the complex but also the susceptibility to reduction of Cu(II) to Cu(I). Intracellular reductants with thiols, such as cysteine-rich metallothioneins, may act as effective reductants of Cu(II) and scavengers of the labile Cu(I) ions.

[1] = cyclic voltammogram, scan rate 0.1 V s^−1, glassy carbon electrode
[2] = cyclic voltammogram, scan rate 0.1 V s^−1, potentials relative to SCE, glassy carbon electrode

## CN=C([S-])N/N=C(C)/C(C)=N/NC([S-])=NC.[Cu+2] [Cu^II(atsm)]
Cyclic voltammetry, glassy carbon electrode
  reversibility of the Cu(II)/Cu(I) reduction: quasi-reversible
[1]
  Cu^II/Cu^I Epa − Epc (anodic to cathodic peak separation): 102 mV
  Cu^III/Cu^II Epa − Epc (anodic to cathodic peak separation): 94 mV
[2]
  Cu^II/Cu^I E1/2: -0.63 V
  Cu^III/Cu^II E1/2: 0.75 V
vs. SCE (Fc/Fc+ 0.54 V), glassy carbon working electrode
  E1/2 of Cu(II)/Cu(I) reduction: −0.63 V
